Read-outs that look alike come from different tables or passages of the source. Square brackets hold non-standard residues; d marks the D form. Peptide text beside a SMILES is read from it. Nspe = C[C@H](NCC(=O)O)c1ccccc1; Nlys = NCCCCNCC(=O)O
Key:
human erythrocytes = assay: Hemolysis assay; assay type: cell-based
Protocol: (§1) Hemolysis assays. Erythrocytes were isolated from freshly drawn, heparanized human blood and resuspended to 20 vol % in PBS (pH 7.4). In a 96-well microtiter plate, 100 μL erythrocyte suspension was added to 100 uL peptoid solution in PBS (prepared by 1:2 serial dilutions), or 100 μL PBS in the case of negative controls. 100% hemolysis wells contained 100 μL, blood cell suspension with 100 μL 0.2 vol % Triton X-100. The plate was incubated for 1 h at 37° C., then each well was diluted with 1504 PBS. The plate was then centrifuged at 1200 g for 15 min, 100 μL of the supernatant from each well transferred to a fresh microtiter plate, and A350 measured.
Hemolysis assays. Erythrocytes were isolated from freshly drawn, heparanized human blood and resuspended in PBS (pH 7.4) to make a 20% volume suspension. Peptoid solutions were prepared by serial dilution (2:1) in a 96-well microtiter plate. For test wells, 100 μLL of erythrocyte suspension was added to 100 μL of peptoid solution in PBS; PBS without peptoid was used as the negative control and 0.2 vol % Triton X-100 as the positive control that indicates 100% hemolysis. After 1 hour incubation at 37° C., each well was diluted with 150 μL PBS. Plates were then centrifuged at 1,200×g for 15 minutes to pellet the cells. 30 μL of the supernatant from each well were transferred to the corresponding well of a second 96-well plate that contains 70 μL PBS.
as §1, with “assays for Compositions.” for “assays.”, “100” for “100 uL”, “μL” for “μL,”, “150 μL” for “1504”, “1200g” for “1200 g”

E. coli ATCC 35218 = assay type: cell-based
Protocol: (§2) Whereas the preceding generation of molecules was designed to elucidate structure function relationships of specific molecular parameters (chirality, length, hydrophobicity, etc.), another generation compounds were designed explicitly to explore effects on selectivity. Antimicrobial activity of these compounds was tested against bacterial strains E. coli (ATTC 35218) and B. subtilis (ATTC 6633) in cation-adjusted MHB using the microdilution protocols previously described. The sequences, antimicrobial activities, hemolytic activities, and metabolic inhibitory concentrations against NIH 3T3 mouse fibroblast cells are summarized in Table 3 and the rationale of their design is described below.
(§3) Screening antibacterial assays. MICs were determined in 96-well microtiter plates in accordance with CLSI M7-A6 protocols. Peptoid solutions with 50 μL total volume were prepared using 2:1 serial dilutions. 50 i—tL of bacteria inoculum (1×10^6 CFU/mL) prepared in cation-adjusted Mueller-Hinton broth (CAMHB) was added to test wells. Control wells contained 100 μL MHB (no growth) or 50 μL inoculums with 50 μL MHB with no peptoid. […] Reported values were reproducible over three experiments, each containing two parallel trials.
(§4) Antibacterial Assays for Compositions. MICs were determined according to CLSI M7-A6 protocols in a 96-well microtiter plate. In test wells, 50 μL bacterial inoculum (1×10^6 CFU/ml) in cation-adjusted Mueller-Hinton broth (CAMHB) was added to 50 μL peptoid solution in CAMHB (prepared by 1:2 serial dilutions). Positive controls contained 50 μL inoculum and 50 μL CAMHB without peptoid. […] MIC values reported were reproducible between three independent experimental replicates, each consisting of two parallel trials.

MTS assay, NIH 3T3 cells = assay type: cell-based, mouse; conditions: mouse, NIH 3T3 fibroblast cells
Protocol: The potencies of all compounds were determined against representative Gram-negative (E. coli ATCC 35218) and Gram-positive (B. subtilis ATCC 6633) biosafety level 1 (BSL1) organisms. In addition to hemolytic activity, the conventional measure of toxicity to mammalian cells, the effect of each ampetoid on NIH 3T3 mouse fibroblast cells was determined using the MTS tetrazolium salt-based colorimetric assay. While hemolysis measures the degree to which erythrocytes are lysed, the MTS assay indirectly quantifies the extent to which cellular metabolic activity is inhibited.
MTS assays. NIH/3T3 cells (ATCC Corporation) cultured at 37° C. and 5% CO2 in complete Dulbecco's modified eagle's media (CDMEM) supplemented with 1% sodium pyruvate, 1% penicillin-streptomycin, 1.5 g/L NaHCO3, and 10% fetal bovine serum. Cells were seeded at a density of 5,000 cells per well for NIH/3T3 cells in 96-well plates (100 μl total volume). A peptoid solution plate (100 μL total volume per well) was prepared by serial dilution of aqueous peptoid stock solution in Hank's balanced salt solution (HBSS) media. The day-old cell monolayers were washed with HBSS and media was replaced with 100 μL HBSS. The contents of the peptoid solution plate were transferred onto corresponding wells of the cell monolayer plate, and 40 μL MTS reagent (Promega, Inc.) was added to each well. After incubating for 3 hours at 37° C., absorbance at 490 nm was determined. […] The average of six replicates is reported.

B. subtilis ATCC 6633 = assay type: cell-based
Protocol: as §2, §3, §4

Compound	E. coli MIC (E. coli ATCC 35218; ATCC 35218)	HD10 (human erythrocytes)	CC50 at 3 h (MTS assay, NIH 3T3 cells)	also measured
CC(C)[C@H](C)N(CC(N)=O)C(=O)CN(C(=O)CN(CCCCN)C(=O)CN(C(=O)CN(C(=O)CN(CCCCN)C(=O)CN(C(=O)CN(C(=O)CN(CCCCN)C(=O)CN(C(=O)CN(C(=O)CNCCCCN)[C@@H](C)C(C)C)[C@@H](C)C(C)C)[C@@H](C)C(C)C)[C@@H](C)C(C)C)[C@@H](C)C(C)C)[C@@H](C)C(C)C)[C@@H](C)C(C)C [1-Nsdpall, H-(Nlys-Nsdp-Nsdp)4-NH2]			64 µM	E. coli MIC (E. coli ATCC 35218; Table 6, E. coli ATCC 35218): 25 µM; Selectivity ratio SR E. coli (E. coli ATCC 35218; Table 6, ratio of 10% hemolytic dose to E. coli MIC): > 8; B. subtilis MIC (B. subtilis ATCC 6633; Table 6, B. subtilis ATCC 6633): 0.78 µM; Selectivity ratio SR B. subtilis (B. subtilis ATCC 6633; Table 6, ratio of 10% hemolytic dose to B. subtilis MIC): 256
C[C@H](NCC(=O)N(CCCCN)CC(=O)N(CC(=O)N(CCCCN)CC(=O)N(CCCCN)CC(=O)N(CC(=O)N(CC(=O)N(CCCCN)CC(=O)N(CC(=O)N(CCCCN)CC(=O)N(CCCCN)CC(=O)N(CC(=O)N(CC(=O)N(CCCCN)CC(=O)N(CC(N)=O)[C@@H](C)c1ccccc1)[C@@H](C)c1ccccc1)[C@@H](C)c1ccccc1)[C@@H](C)c1ccccc1)[C@@H](C)c1ccccc1)[C@@H](C)c1ccccc1)[C@@H](C)c1ccccc1)c1ccccc1 [1B15 mer-Nlys4,10, H-(Nspe-Nlys-Nspe-Nlys-Nlys-Nspe)2-Nspe-Nlys-Nspe-NH2] (H-[Nspe][Nlys][Nspe][Nlys][Nlys][Nspe][Nspe][Nlys][Nspe][Nlys][Nlys][Nspe][Nspe][Nlys][Nspe]-NH2)	50 µM		16 µM	
C[C@@H](c1ccccc1)N(CC(=O)N(CCCCN)CC(=O)N(CC(=O)N(CC(=O)N(CCCCN)CC(=O)N(CC(=O)N(CC(=O)N(CCCCN)CC(N)=O)[C@@H](C)c1ccccc1)[C@@H](C)c1ccccc1)[C@@H](C)c1ccccc1)[C@@H](C)c1ccccc1)C(=O)CN(C(=O)CNCCCCN)[C@@H](C)c1ccccc1 [110 mer, H-(Nlys-Nspe-Nspe)3-Nlys-NH2] (H-[Nlys][Nspe][Nspe][Nlys][Nspe][Nspe][Nlys][Nspe][Nspe][Nlys]-NH2)	12.5 µM	> 200 µM	54 µM	
C[C@H](NCC(=O)N(CCCCN)CC(=O)N(CC(=O)N(CCCCN)CC(=O)N(CCCCN)CC(=O)N(CC(=O)N(CC(=O)N(CCCCN)CC(=O)N(CC(=O)N(CCCCN)CC(=O)N(CCCCN)CC(=O)N(CC(N)=O)[C@@H](C)c1ccccc1)[C@@H](C)c1ccccc1)[C@@H](C)c1ccccc1)[C@@H](C)c1ccccc1)[C@@H](C)c1ccccc1)c1ccccc1 [1B12 mer-Nlys4,10, H-(Nspe-Nlys-Nspe-Nlys-Nlys-Nspe)2-NH2] (H-[Nspe][Nlys][Nspe][Nlys][Nlys][Nspe][Nspe][Nlys][Nspe][Nlys][Nlys][Nspe]-NH2)	50 µM		83 µM	
C[C@@H](c1ccc2ccccc2c1)N(CC(N)=O)C(=O)CN(C(=O)CN(CCCCN)C(=O)CN(C(=O)CN(C(=O)CN(CCCCN)C(=O)CN(C(=O)CN(C(=O)CN(CCCCN)C(=O)CN(C(=O)CN(C(=O)CNCCCCN)[C@@H](C)c1ccccc1)[C@@H](C)c1ccccc1)[C@@H](C)c1ccccc1)[C@@H](C)c1ccc2ccccc2c1)[C@@H](C)c1ccccc1)[C@@H](C)c1ccccc1)[C@@H](C)c1ccccc1 [1-Nsna6,12, H-(Nlys-Nspe-Nspe-Nlys-Nspe-Nsna)2-NH2]		7 µM		HD50 (human erythrocytes): 27 µM; HD10 (10% hemolytic dose) (human erythrocytes; red cells of human, 1 h): 4 µM; HD50 (50% hemolytic dose) (human erythrocytes; red cells of human, 1 h): 22 µM; MIC for E. coli ATCC 35218 (E. coli ATCC 35218; ATCC 35218): 25 to 50 µM; MIC for B. subtilis ATCC 6633 (B. subtilis ATCC 6633; ATCC 6633): 0.78 to 1.6 µM
C[C@H](NCC(=O)N(CCCCN)CC(=O)N(CC(=O)N(CCCCN)CC(=O)N(CCCCN)CC(=O)N(CCCCN)CC(=O)N(CC(=O)N(CCCCN)CC(=O)N(CC(=O)N(CCCCN)CC(=O)N(CCCCN)CC(=O)N(CC(=O)N(CC(=O)N(CCCCN)CC(=O)N(CC(N)=O)[C@@H](C)c1ccccc1)[C@@H](C)c1ccccc1)[C@@H](C)c1ccccc1)[C@@H](C)c1ccccc1)[C@@H](C)c1ccccc1)[C@@H](C)c1ccccc1)c1ccccc1 [1B15 mer-Nlys4,6,10, H-Nspe-Nlys-Nspe-Nlys-Nlys-Nlys-Nspe-Nlys-Nspe-Nlys-Nlys-Nspe-Nspe-Nlys-Nspe-NH2] (H-[Nspe][Nlys][Nspe][Nlys][Nlys][Nlys][Nspe][Nlys][Nspe][Nlys][Nlys][Nspe][Nspe][Nlys][Nspe]-NH2)	>100 µM		40 µM	

Further lines, with some results ahead:

E. coli MIC (E. coli ATCC 35218; ATCC 35218)	Compound	HD10 (human erythrocytes)	CC50 at 3 h (MTS assay, NIH 3T3 cells)	also measured
6.3 µM	C[C@H](NCC(=O)N(CCCCN)CC(=O)N(CC(=O)N(CC(=O)N(CCCCN)CC(=O)N(CC(=O)N(CC(=O)N(CCCCN)CC(=O)N(CC(=O)N(CC(=O)N(CCCCN)CC(=O)N(CC(N)=O)[C@@H](C)c1ccccc1)[C@@H](C)c1ccccc1)[C@@H](C)c1ccccc1)[C@@H](C)c1ccccc1)[C@@H](C)c1ccccc1)[C@@H](C)c1ccccc1)[C@@H](C)c1ccccc1)c1ccccc1 [1B, H-(Nspe-Nlys-Nspe)4-NH2] (H-[Nspe][Nlys][Nspe][Nspe][Nlys][Nspe][Nspe][Nlys][Nspe][Nspe][Nlys][Nspe]-NH2)	55 µM	4.9 µM	
6.3 µM	C[C@H](NCC(=O)N(CC(=O)N(CCCCN)CC(=O)N(CC(=O)N(CC(=O)N(CCCCN)CC(=O)N(CC(=O)N(CC(=O)N(CCCCN)CC(=O)N(CC(=O)N(CC(=O)N(CCCCN)CC(N)=O)[C@@H](C)c1ccccc1)[C@@H](C)c1ccccc1)[C@@H](C)c1ccccc1)[C@@H](C)c1ccccc1)[C@@H](C)c1ccccc1)[C@@H](C)c1ccccc1)[C@@H](C)c1ccccc1)c1ccccc1 [1C, H-(Nspe-Nspe-Nlys)4-NH2] (H-[Nspe][Nspe][Nlys][Nspe][Nspe][Nlys][Nspe][Nspe][Nlys][Nspe][Nspe][Nlys]-NH2)	25 µM	5.6 µM	
6.3 µM	C[C@H](NCC(=O)N(CC(=O)N(CCCCN)CC(=O)N(CC(=O)N(CCCCN)CC(=O)N(CC(=O)N(CCCCN)CC(=O)N(CC(=O)N(CC(=O)N(CC(=O)N(CC(=O)N(CCCCN)CC(N)=O)[C@@H](C)c1ccccc1)[C@@H](C)c1ccccc1)[C@@H](C)c1ccccc1)[C@@H](C)c1ccccc1)[C@@H](C)c1ccccc1)[C@@H](C)c1ccccc1)[C@@H](C)c1ccccc1)c1ccccc1 [1scr, H-(Nspe)2-(Nlys-Nspe)3-(Nspe)3-Nlys-NH2] (H-[Nspe][Nspe][Nlys][Nspe][Nlys][Nspe][Nlys][Nspe][Nspe][Nspe][Nspe][Nlys]-NH2)	64 µM	8.5 µM	

Source: patent publication US20120295838A1, “Selective poly-substituted glycine antibiotics and related compositions” (priority 2008, published 2012)
